We go through one compound from ChEMBL document CHEMBL4837226, “Discovery of pyrrole derivatives for the treatment of glioblastoma and chronic myeloid leukemia” (Eur J Med Chem, 2021).

Molecules are shown by their SMILES. Activity calls are given as the source filed them. No cut-off for these calls is given here.

Test [1] concerns KBM5. Kind of test: Potentiation of ponatinib-induced mitochondrial membrane depolarization in human KBM5 cells expressing T315I mutant at 5 nM in the presence of ponatinib measured upto 48 hrs by JC-1 staining based flow cytometry analysis (Rvb= 32.7 %). The test is classed as functional. To be noted: time hrs <=48.
The test system of test [2] is KBM5. Kind of test: Potentiation of ponatinib-induced apoptosis human KBM5 cells assessed as increase in apoptotic cells at 5 nM measured after 48 hrs by annexin V staining based flow cytometry analysis. The test is classed as functional, cell-based.
Test [3] addresses T1, DNA topoisomerase 1 (Homo sapiens) (UniProt P11387).
T1 sequence (whole entry): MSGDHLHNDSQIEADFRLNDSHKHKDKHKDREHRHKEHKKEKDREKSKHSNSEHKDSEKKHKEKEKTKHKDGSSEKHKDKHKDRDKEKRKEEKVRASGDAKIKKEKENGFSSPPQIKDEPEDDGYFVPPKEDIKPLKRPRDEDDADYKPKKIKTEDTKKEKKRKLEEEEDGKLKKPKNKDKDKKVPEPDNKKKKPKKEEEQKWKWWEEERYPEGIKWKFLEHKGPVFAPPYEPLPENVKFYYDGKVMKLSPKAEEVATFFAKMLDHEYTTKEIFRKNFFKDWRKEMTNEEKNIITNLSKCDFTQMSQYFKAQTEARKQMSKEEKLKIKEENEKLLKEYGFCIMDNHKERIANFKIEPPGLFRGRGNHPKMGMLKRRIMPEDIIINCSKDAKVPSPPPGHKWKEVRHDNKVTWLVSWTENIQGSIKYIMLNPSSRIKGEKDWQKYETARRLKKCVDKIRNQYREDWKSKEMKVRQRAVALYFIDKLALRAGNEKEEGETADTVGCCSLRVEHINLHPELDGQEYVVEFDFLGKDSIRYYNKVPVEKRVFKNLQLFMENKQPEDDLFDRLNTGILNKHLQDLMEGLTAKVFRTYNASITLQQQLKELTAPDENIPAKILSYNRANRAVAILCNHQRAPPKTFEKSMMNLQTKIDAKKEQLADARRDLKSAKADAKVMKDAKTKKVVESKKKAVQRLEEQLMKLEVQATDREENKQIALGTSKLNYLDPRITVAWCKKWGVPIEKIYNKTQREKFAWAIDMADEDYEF
Nature of the test: Inhibition of human recombinant topoisomerase I using supercoiled pHOT1 plasmid DNA as substrate at 10 to 100 uM measured after 1 hr by agarose gel electrophoresis analysis. The following applies: dose 10-100 µM.

The target in test [4] is T2, DNA topoisomerase II (Homo sapiens) (UniProt P11388+Q02880). Nature of the test: Inhibition of human topoisomerase II assessed as reduction in decantenation using kinetoplast DNA as a substrate at 100 uM measured after 1 hr by ethidium bromide staining based agarose gel electrophoresis analysis relative to control. The test is classed as protein assay.
The test system of test [5] is KBM5. Nature of the test: Induction of apoptosis in human KBM5 cells expressing T315I mutant assessed as increase in Bcr-Abl expression at 1 to 10 uM measured after 24 hrs by western blot analysis. The test is classed as functional, cell-based. To be noted: dose 1-10 µM.
In test [6] the test system is U-87 MG. Kind of test: Cytotoxicity against human U-87MG cells assessed as cell growth inhibition by measuring maximum efficacy measured after 48 hrs by MTS colorimetric assay relative to control. The test is classed as functional, U-87MG ATCC.
Test [7] relates to KBM5. Kind of test: Potentiation of ponatinib-induced apoptosis human KBM5 cells expressing T315I mutant assessed as increase in apoptotic cells at 5 nM measured after 48 hrs by annexin V staining based flow cytometry analysis (reference value: 35 %). The test is classed as functional.
For test [8], the system named is KBM5. Kind of test: Cytotoxicity against Imatinib mesylate sensitive wild-type human KBM5 cells assessed as cell growth inhibition measured after 48 hrs by MTT assay. The test is classed as functional, cell-based. To be noted: KBM5, 48 h.
The next test addresses Tubulin. Kind of test: Inhibition of tubulin polymerization (unknown origin) assessed as reduction in tubulin assembly preincubated for 15 mins followed by GTP addition by spectrophotometric method. The test is classed as protein-complex assay, Homo sapiens.
The test system of test [9] is U-87 MG. Kind of test: Antitumor activity against human U-87MG cells xenografted in BALB/c nu/nu mouse assessed as reduction in CD133 marker expression at 25 mg/kg, ip administered every 2 days for 35 days by DAPI staining based immunofluorescence analysis. The test is classed as functional, organism-based. The following applies: U-87MG ATCC, time 35.0 day.
Test [10] in a line: Cytotoxicity against human U-343MG cells assessed as cell growth inhibition measured after 72 hrs by MTS colorimetric assay. The test is classed as functional, cell-based.
In test [11] the test system is U-87 MG. Kind of test: Antitumor activity against human U-87MG cells xenografted in BALB/c nu/nu mouse assessed as reduction in Ki67 expression at 25 mg/kg, ip administered every 2 days for 35 days by DAPI staining based immunofluorescence analysis. The test is classed as functional, organism-based. The following applies: U-87MG ATCC, time 35.0 day.
The nature of test [12]: Cytotoxicity against human U343MG cells assessed as cell growth inhibition by measuring maximum efficacy measured after 72 hrs by MTS colorimetric assay relative to control. The test is classed as functional. To be noted: U-343MG.
Test [13] relates to U-87 MG. Kind of test: Antitumor activity against human U-87MG cells xenografted in BALB/c nu/nu mouse assessed as reduction in GFAP expression at 25 mg/kg, ip administered every 2 days for 35 days by DAPI staining based immunofluorescence analysis. The test is classed as functional, organism-based. The following applies: U-87MG ATCC, time 35.0 day.
For a further test, the system named is SW-620. Kind of test: Cytotoxicity against human SW-620 cells assessed as cell growth inhibition measured after 48 hrs by XTT dye based assay. The test is classed as functional. To be noted: SW-620, 48 h.
Test [14] addresses T2, DNA topoisomerase II (Homo sapiens). Nature of the test: Inhibition of human topoisomerase II assessed as reduction in decantenation using kinetoplast DNA as a substrate at 10 to 50 uM measured after 1 hr by ethidium bromide staining based agarose gel electrophoresis analysis. The test is classed as protein assay. The following applies: dose 10-50 µM.
The subject of test [15] is U-87 MG. Kind of test: Antitumor activity against human U-87MG cells xenografted in BALB/c nu/nu mouse assessed as reduction in CD31 marker expression at 25 mg/kg, ip administered every 2 days for 35 days by DAPI staining based immunofluorescence analysis. The test is classed as functional, organism-based. To be noted: U-87MG ATCC, time 35.0 day.
Test [16] relates to KBM5. Kind of test: Induction of apoptosis in human KBM5 cells expressing T315I mutant assessed as increase in cytochrome C expression at 1 to 10 uM measured after 24 hrs by western blot analysis. The test is classed as functional, cell-based. To be noted: dose 1-10 µM.
The subject of another test is SW480. Kind of test: Cytotoxicity against human SW480 cells assessed as cell growth inhibition measured after 48 hrs by XTT dye based assay. The test is classed as functional. The following applies: SW480, 48 h.
Test [17] concerns U-87 MG. Kind of test: Antitumor activity against human U-87MG cells xenografted in BALB/c nu/nu mouse assessed as reduction in Bcl2 protein expression at 25 mg/kg, ip administered every 2 days for 35 days by DAPI staining based immunofluorescence analysis. The test is classed as functional, organism-based. The following applies: U-87MG ATCC, time 35.0 day.
Test [18] deals with KBM5. Nature of the test: Cytotoxicity against imatinib mesylate resistant wild-type human KBM5 cells expressing T315I mutant assessed as cell growth inhibition measured after 48 hrs by MTT assay. To be noted: KBM5, 48 h. The test is classed as functional, cell-based.
For test [19], the system named is U-87 MG. Nature of the test: Antitumor activity against human U-87MG cells xenografted in BALB/c nu/nu mouse assessed as reduction in glioma tumors at 25 mg/kg, ip administered every 2 days for 35 days by hematoxylin and eosin staining based assay. The test is classed as functional, organism-based. To be noted: U-87MG ATCC, time 35.0 day.
Test [20] has as its system U-87 MG. Nature of the test: Antitumor activity against human U-87MG cells xenografted in BALB/c nu/nu mouse assessed as reduction in tumor weight at 25 mg/kg, ip administered every 2 days for 35 days. The test is classed as functional, organism-based. The following applies: U-87MG ATCC, time 35.0 day.
Another test concerns KU812 cell line. Nature of the test: Potentiation of ponatinib-induced apoptosis in human KU812 cells assessed as increase in apoptotic cells at 5 nM measured after 48 hrs by annexin V staining based flow cytometry analysis. The test is classed as functional, cell-based.

Consider `COc1cc(C(=O)c2cn(-c3ccc(C)cc3)cc2-c2ccsc2)cc(OC)c1OC`, for which the Activity in the test with KBM5 [1] is on record as 56.7%; in the test on KBM5 [7], 70%. Also, the result with KBM5 [2], in the test with KBM5 [5], with U-87 MG [9], in the test with U-87 MG [11], in the test with U-87 MG [13] and with U-87 MG [15] was Active. Besides, the outcome with KBM5 [16], in the test on U-87 MG [17], in the test on U-87 MG [19], in the test on U-87 MG [20] and in the test on KU812 cell line was Active. In addition, the inhibition result in test [3] and in test [14] was “inactive” in each case. Besides, in [4], the inhibition is 100%. Besides, the results for the Emax (in the test with U-87 MG [6]; in [12]) were 55.6% and 48.5%, respectively. Moreover, the IC50 was determined as 0.0082 µM with KBM5 [8]; 0.39 µM on Tubulin; 0.0186 µM in test [10]; 0.111 µM in the test on SW-620; 0.656 µM with SW480; 0.0088 µM in the test on KBM5 [18].
